Laboratory results reported in the supplement of paper PMC10307832.

Legend:
Experiment in all cases: relative viability (nuclei count vs DMSO), 5 days (fraction); higher = more cells survive
[1] = system: NCI-H2342
Outline: (§1)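 Relative viability is defined as nuclei in treated wells over nuclei in vehicle wells. Duplicate plates were run and medians reported. Lung cancer cell lines in 1536-well plates were dosed by pin tool one day after seeding, with one drug or with a fixed anchor-drug dose plus five library-drug doses (not always all listed) in √10 steps, and nuclei were counted after 5 days.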

[2] = system: NCI-H1793
Outline: as §1

[3] = system: EMC-BAC-2
Outline: as §1

[4] = system: EKVX
Outline: as §1

[5] = system: H3255
Outline: as §1

[6] = system: LXF-289
Outline: as §1

[7] = system: NCI-H2347
Outline: as §1

[8] = system: NCI-H1755
Outline: as §1

[9] = system: NCI-H1395
Outline: as §1

[10] = system: NCI-H2085
Outline: as §1

[11] = system: LK-2
Outline: as §1

[12] = system: NCI-H1437
Outline: as §1

[13] = system: LC-2-ad
Outline: as §1

[14] = system: NCI-H1944
Outline: as §1

[15] = system: NCI-H522
Outline: as §1

[16] = system: CAL-12T
Outline: as §1

[17] = system: NCI-H2087
Outline: as §1

[18] = system: NCI-H1915
Outline: as §1

[19] = system: PC-3 [JPC-3]
Outline: as §1

[20] = system: NCI-H1651
Outline: as §1

[21] = system: SK-LU-1
Outline: as §1

[22] = system: SK-MES-1
Outline: as §1

[23] = system: COR-L 105
Outline: as §1

[24] = system: NCI-H661
Outline: as §1

SMILES: CCCCCCCCCCCC1=C(O)C(=O)C=C(O)C1=O [Embelin] + NC(=O)Nc1cc(-c2cccc(F)c2)sc1C(=O)N[C@H]1CCCNC1 [AZD7762] (partner 0.2 µM)
- relative viability ([1]; first compound 0.08 µM): 0.47
- relative viability ([1]; first compound 0.8 µM): 0.514
- relative viability ([1]; first compound 2.53 µM): 0.546
- relative viability ([1]; first compound 8 µM): 0.456
- relative viability ([2]; first compound 0.08 µM): 0.635
- relative viability ([2]; first compound 0.8 µM): 0.927
- relative viability ([2]; first compound 2.53 µM): 0.472
- relative viability ([2]; first compound 8 µM): 0.408
- relative viability ([3]; first compound 0.08 µM): 1.12
- relative viability ([3]; first compound 0.8 µM): 1.22
- relative viability ([3]; first compound 2.53 µM): 1.13
- relative viability ([3]; first compound 8 µM): 1.06
- relative viability ([4]; first compound 0.08 µM): 0.698
- relative viability ([4]; first compound 0.8 µM): 0.748
- relative viability ([4]; first compound 2.53 µM): 0.662
- relative viability ([4]; first compound 8 µM): 0.749
- relative viability ([5]; first compound 0.08 µM): 0.826
- relative viability ([5]; first compound 0.8 µM): 0.975
- relative viability ([5]; first compound 2.53 µM): 0.894
- relative viability ([5]; first compound 8 µM): 0.913
- relative viability ([6]; first compound 0.08 µM): 1.17
- relative viability ([6]; first compound 0.8 µM): 1.16
- relative viability ([6]; first compound 2.53 µM): 1.14
- relative viability ([6]; first compound 8 µM): 1.2
- relative viability ([7]; first compound 0.08 µM): 0.841
- relative viability ([7]; first compound 0.8 µM): 0.85
- relative viability ([7]; first compound 2.53 µM): 0.722
- relative viability ([7]; first compound 8 µM): 0.67
- relative viability ([8]; first compound 0.08 µM): 0.432
- relative viability ([8]; first compound 0.8 µM): 0.477
- relative viability ([8]; first compound 2.53 µM): 0.45
- relative viability ([8]; first compound 8 µM): 0.429
- relative viability ([9]; first compound 0.08 µM): 0.434
- relative viability ([9]; first compound 0.8 µM): 0.425
- relative viability ([9]; first compound 2.53 µM): 0.384
- relative viability ([9]; first compound 8 µM): 0.366
- relative viability ([10]; first compound 0.08 µM): 0.956
- relative viability ([10]; first compound 0.8 µM): 1.09
- relative viability ([10]; first compound 2.53 µM): 0.93
- relative viability ([10]; first compound 8 µM): 1.03
- relative viability ([11]; first compound 0.08 µM): 0.497
- relative viability ([11]; first compound 0.8 µM): 0.543
- relative viability ([11]; first compound 2.53 µM): 0.497
- relative viability ([11]; first compound 8 µM): 0.351
- relative viability ([12]; first compound 0.08 µM): 1.15
- relative viability ([12]; first compound 0.8 µM): 1.16
- relative viability ([12]; first compound 2.53 µM): 1.15
- relative viability ([12]; first compound 8 µM): 1.2
- relative viability ([13]; first compound 0.08 µM): 0.884
- relative viability ([13]; first compound 0.8 µM): 0.888
- relative viability ([13]; first compound 2.53 µM): 0.916
- relative viability ([13]; first compound 8 µM): 0.814
- relative viability ([14]; first compound 0.08 µM): 0.449
- relative viability ([14]; first compound 0.8 µM): 0.566
- relative viability ([14]; first compound 2.53 µM): 0.526
- relative viability ([14]; first compound 8 µM): 0.436
- relative viability ([15]; first compound 0.08 µM): 0.865
- relative viability ([15]; first compound 0.8 µM): 1.05
- relative viability ([15]; first compound 2.53 µM): 0.91
- relative viability ([15]; first compound 8 µM): 0.756
- relative viability ([16]; first compound 0.08 µM): 0.641
- relative viability ([16]; first compound 0.8 µM): 0.697
- relative viability ([16]; first compound 2.53 µM): 0.61
- relative viability ([16]; first compound 8 µM): 0.676
- relative viability ([17]; first compound 0.08 µM): 1.34
- relative viability ([17]; first compound 0.8 µM): 1.37
- relative viability ([17]; first compound 2.53 µM): 1.2
- relative viability ([17]; first compound 8 µM): 1.28
- relative viability ([18]; first compound 0.08 µM): 0.72
- relative viability ([18]; first compound 0.8 µM): 0.764
- relative viability ([18]; first compound 2.53 µM): 0.751
- relative viability ([18]; first compound 8 µM): 0.614
- relative viability ([19]; first compound 0.08 µM): 0.765
- relative viability ([19]; first compound 0.8 µM): 0.888
- relative viability ([19]; first compound 2.53 µM): 0.797
- relative viability ([19]; first compound 8 µM): 0.724
- relative viability ([20]; first compound 0.08 µM): 0.452
- relative viability ([20]; first compound 0.8 µM): 0.549
- relative viability ([20]; first compound 2.53 µM): 0.527
- relative viability ([20]; first compound 8 µM): 0.46

SMILES: CCCCCCCCCCCC1=C(O)C(=O)C=C(O)C1=O [Embelin] + Nc1ncn([C@H]2C[C@H](O)[C@@H](CO)O2)c(=O)n1 [Decitabine] (partner 2 µM)
- relative viability ([1]; first compound 0.08 µM): 0.71
- relative viability ([1]; first compound 0.8 µM): 0.722
- relative viability ([1]; first compound 2.53 µM): 0.842
- relative viability ([1]; first compound 8 µM): 0.741
- relative viability ([2]; first compound 0.08 µM): 0.586
- relative viability ([2]; first compound 0.8 µM): 0.625
- relative viability ([2]; first compound 2.53 µM): 0.505
- relative viability ([2]; first compound 8 µM): 0.549
- relative viability ([3]; first compound 0.08 µM): 0.945
- relative viability ([3]; first compound 0.8 µM): 1.01
- relative viability ([3]; first compound 2.53 µM): 0.958
- relative viability ([3]; first compound 8 µM): 0.955
- relative viability ([4]; first compound 0.08 µM): 0.41
- relative viability ([4]; first compound 0.8 µM): 0.4
- relative viability ([4]; first compound 2.53 µM): 0.314
- relative viability ([4]; first compound 8 µM): 0.313
- relative viability ([5]; first compound 0.08 µM): 0.502
- relative viability ([5]; first compound 0.8 µM): 0.783
- relative viability ([5]; first compound 2.53 µM): 0.617
- relative viability ([5]; first compound 8 µM): 0.656
- relative viability ([6]; first compound 0.08 µM): 0.396
- relative viability ([6]; first compound 0.8 µM): 0.419
- relative viability ([6]; first compound 2.53 µM): 0.455
- relative viability ([6]; first compound 8 µM): 0.352
- relative viability ([7]; first compound 0.08 µM): 0.618
- relative viability ([7]; first compound 0.8 µM): 0.72
- relative viability ([7]; first compound 2.53 µM): 0.671
- relative viability ([7]; first compound 8 µM): 0.592
- relative viability ([8]; first compound 0.08 µM): 0.767
- relative viability ([8]; first compound 0.8 µM): 0.72
- relative viability ([8]; first compound 2.53 µM): 0.781
- relative viability ([8]; first compound 8 µM): 0.753
- relative viability ([9]; first compound 0.08 µM): 0.712
- relative viability ([9]; first compound 0.8 µM): 0.872
- relative viability ([9]; first compound 2.53 µM): 0.699
- relative viability ([9]; first compound 8 µM): 0.698
- relative viability ([10]; first compound 0.08 µM): 0.538
- relative viability ([10]; first compound 0.8 µM): 0.602
- relative viability ([10]; first compound 2.53 µM): 0.531
- relative viability ([10]; first compound 8 µM): 0.504
- relative viability ([11]; first compound 0.08 µM): 0.287
- relative viability ([11]; first compound 0.8 µM): 0.348
- relative viability ([11]; first compound 2.53 µM): 0.406
- relative viability ([11]; first compound 8 µM): 0.332
- relative viability ([12]; first compound 0.08 µM): 0.541
- relative viability ([12]; first compound 0.8 µM): 0.623
- relative viability ([12]; first compound 2.53 µM): 0.568
- relative viability ([12]; first compound 8 µM): 0.41
- relative viability ([13]; first compound 0.08 µM): 0.788
- relative viability ([13]; first compound 0.8 µM): 0.79
- relative viability ([13]; first compound 2.53 µM): 0.795
- relative viability ([13]; first compound 8 µM): 0.782
- relative viability ([14]; first compound 0.08 µM): 0.436
- relative viability ([14]; first compound 0.8 µM): 0.406
- relative viability ([14]; first compound 2.53 µM): 0.5
- relative viability ([14]; first compound 8 µM): 0.443
- relative viability ([15]; first compound 0.08 µM): 0.647
- relative viability ([15]; first compound 0.8 µM): 0.617
- relative viability ([15]; first compound 2.53 µM): 0.578
- relative viability ([15]; first compound 8 µM): 0.704
- relative viability ([17]; first compound 0.08 µM): 0.278
- relative viability ([17]; first compound 0.8 µM): 0.295
- relative viability ([17]; first compound 2.53 µM): 0.361
- relative viability ([17]; first compound 8 µM): 0.225
- relative viability ([18]; first compound 0.08 µM): 0.265
- relative viability ([18]; first compound 0.8 µM): 0.241
- relative viability ([18]; first compound 2.53 µM): 0.263
- relative viability ([18]; first compound 8 µM): 0.264
- relative viability ([21]; first compound 0.08 µM): 0.617
- relative viability ([21]; first compound 0.8 µM): 0.683
- relative viability ([21]; first compound 2.53 µM): 0.709
- relative viability ([21]; first compound 8 µM): 0.641
- relative viability ([19]; first compound 0.08 µM): 0.776
- relative viability ([19]; first compound 0.8 µM): 0.882
- relative viability ([19]; first compound 2.53 µM): 0.919
- relative viability ([19]; first compound 8 µM): 0.821
- relative viability ([22]; first compound 0.08 µM): 0.436
- relative viability ([22]; first compound 0.8 µM): 0.396
- relative viability ([22]; first compound 2.53 µM): 0.361
- relative viability ([22]; first compound 8 µM): 0.266
- relative viability ([20]; first compound 0.08 µM): 0.634
- relative viability ([20]; first compound 0.8 µM): 0.67
- relative viability ([20]; first compound 2.53 µM): 0.867
- relative viability ([20]; first compound 8 µM): 0.659
- relative viability ([23]; first compound 0.08 µM): 0.676
- relative viability ([23]; first compound 0.8 µM): 0.715
- relative viability ([23]; first compound 2.53 µM): 0.657
- relative viability ([23]; first compound 8 µM): 0.751
- relative viability ([24]; first compound 0.08 µM): 0.565
- relative viability ([24]; first compound 0.8 µM): 0.614
- relative viability ([24]; first compound 2.53 µM): 0.649
- relative viability ([24]; first compound 8 µM): 0.541
